Assay results as given in patent US9695132B2, “Heteroaryl compounds and uses thereof” (Celgene CAR LLC, priority 2013, dated 2017).

How the values were obtained:
[1] = target: FGFR4 in MDA-MB-453 cells (Homo sapiens, UniProt P22455); assay: Target occupancy assay with biotinylated covalent probe I-127; assay type: cell-based
Procedure: In order to assess free FGFR4 protein a biotinylated covalent probe was utilized. […] The reaction was incubated for 2 hr at room temperature. The samples and probe mixture were transferred to a FGFR4-coated MSD plate for 2 hr at room temperature. MSD signals were obtained with an anti-streptavidin Sulfo-tag (Meso Scale) antibody for 1 hr at room temperature. […] If a compound completely (100%) covalently modies FGFR4 no free FGFR4 should be available for covalent modification by the biotinylated probe and subsequent binding to streptavidin and detection.

FGFR4-WT = FGFR4-WT (Homo sapiens (Human), UniProt P22455); assay: Omnia assay for potency assessment against FGFR4 enzyme; assay type: biochemical; conditions: [Y10-Sox]=10 uM
Chain of FGFR4-WT (P22455 22-802): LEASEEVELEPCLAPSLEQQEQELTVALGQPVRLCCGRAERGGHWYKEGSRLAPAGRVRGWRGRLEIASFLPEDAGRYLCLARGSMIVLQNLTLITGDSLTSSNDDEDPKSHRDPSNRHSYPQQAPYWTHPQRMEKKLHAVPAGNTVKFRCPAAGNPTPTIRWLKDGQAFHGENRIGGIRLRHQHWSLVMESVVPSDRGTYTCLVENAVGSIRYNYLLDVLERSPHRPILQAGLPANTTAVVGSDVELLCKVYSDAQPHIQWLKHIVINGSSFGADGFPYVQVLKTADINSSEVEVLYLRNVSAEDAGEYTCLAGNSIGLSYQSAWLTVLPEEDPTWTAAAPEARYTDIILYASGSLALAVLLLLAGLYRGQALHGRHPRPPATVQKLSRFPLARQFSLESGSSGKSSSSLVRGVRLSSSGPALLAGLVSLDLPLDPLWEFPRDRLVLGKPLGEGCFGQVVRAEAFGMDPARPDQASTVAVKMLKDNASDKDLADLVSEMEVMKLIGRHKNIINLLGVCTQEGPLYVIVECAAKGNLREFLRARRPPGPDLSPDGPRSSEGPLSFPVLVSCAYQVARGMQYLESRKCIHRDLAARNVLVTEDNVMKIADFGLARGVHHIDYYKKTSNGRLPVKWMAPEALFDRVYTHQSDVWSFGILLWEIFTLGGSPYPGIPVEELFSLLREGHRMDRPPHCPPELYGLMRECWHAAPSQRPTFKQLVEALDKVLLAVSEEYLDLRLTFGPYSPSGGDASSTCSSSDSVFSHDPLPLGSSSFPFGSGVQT
Procedure: A 10× stock solution of FGFR4-WT (PR4380C), (from Invitrogen, Carlsbad, Calif.) corresponding to method a in Table 7, was prepared as described below. Alternatively, a 10× stock solution of FGFR4-WT (F01-11G), (SignalChem, Richmond, BC) corresponding to method b in Table 7, was prepared as described below. A solution of 1.4×ATP (AS001A) and 5× Tyr-Sox conjugated peptide substrate (KNZ3101) were prepared in 1× kinase reaction buffer consisting of 20 mM Tris, pH 7.5, 5 mM MgCl2, 1 mM EGTA, 5 mM β-glycerophosphate, 5% glycerol (10× stock, KB002A) and 0.2 mM DTT (DS001A). […] The serially diluted compounds were prepared on a Tecan EVO100. A second addition of 10 μl of Tyr-Sox FGFR4 substrate was added to each well and the kinase reactions were started with the addition of 35 μL of 1.4×ATP. The reactions were monitored every 71 seconds for 240 minutes at λex360/λem485 in a Synergy plate reader from BioTek (Winooski, Vt.).

pFGFR4 in Huh7 cells = pFGFR4 in Huh7 cells (Homo sapiens (Human), UniProt P22455); assay: FGFR4 signaling, Meso Scale assay (MSD), Method B, Huh7
Chain of pFGFR4 in Huh7 cells (P22455 22-802): as above
Procedure: Huh7 cells were grown in DMEM (Invitrogen, Carlsbad, Calif.) supplemented with 10% FBS (Invitrogen) and 1% Penicillin-Streptomycin (P/S, Lonza, Walkersville, Md.).
For the MSD and ELISA assays, total FGFR4 antibodies were obtained from R&D Systems (Minneapolis, Minn.) and used at 1:500. […] Phospho-FGFR antibodies were obtained from Cell Signaling (Danvers, Mass.) or R&D Systems and used at 1:1000. The phopho-FGFR antibody from Cell Signaling was used for immunoblotting, whereas the phopho-FGFR antibody from R&D was used for MSD and ELISA assays. Secondary antibodies were used at 1:10,000. The goat anti-mouse IgG IRDye 800CW antibody was obtained from LiCor Biosciences (Lincoln, Nebr.) and the goat anti-rabbit IgG Alexa Fluor 680 was obtained from Invitrogen. The anti-rabbit Sulfo-tag and anti-streptavidin Sulfo-tag antibodies was obtained from Meso Scale Discovery (Gaithersburg, Md.), and were used at 1:1000 and 1:5000, respectively.
After treatment, the cells were washed with cold PBS (Invitrogen), and were immediately lysed by freeze/thawing 3× in 32 μL of cold Cell Extraction Buffer (Invitrogen), which was supplemented with Complete Protease inhibitors (Roche) and PhosphoSTOP (Roche) phosphatase inhibitors.
MSD plates (Meso Scale Discovery) were coated with total FGFR-4 antibodies overnight at 4° C. A lysate (25 μL) was added to the MSD plate overnight at 4° C. The MSD signals were obtained by incubating with a phospho-FGFR antibody (R&D Systems) and an anti-rabbit sulfo-tag antibody (Meso Scale), for 2 hr at room temperature. […] The data was fitted using a sigmoidal curve analysis program (Graph Pad Prism version 5) with variable Hill slope to determine the EC50 values.

[2] = method b: [FGFR4-WT]=2.5 nM (SignalChem), [ATP]=250 uM
[3] = method a: [FGFR4-WT]=10 nM (Invitrogen), [ATP]=300 uM

Chain of FGFR4 in MDA-MB-453 cells (P22455 22-802 limits assumed): as the sequence (P22455 22-802) above

Compound	EC50 [1] [nM]	IC50 (FGFR4-WT; [2]) [nM]	EC50 (pFGFR4 in Huh7 cells) [nM]	IC50 (FGFR4-WT; [3]) [nM]
C=CC(=O)Nc1ccccc1Nc1ncc2c(n1)N(Cc1ccccc1)C(=O)N(c1c(Cl)c(OC)cc(OC)c1Cl)C2 [Compound I-3]	< 100	< 100	–	–
C=CC(=O)Nc1ccccc1Nc1ncc2c(n1)N(Cc1cccnc1)C(=O)N(c1cc(OC)cc(OC)c1)C2 [Compound I-44]	–	–	< 100	< 100
C=CC(=O)N[C@H]1CCCC[C@H]1Nc1ncc2c(n1)N(C)C(=O)N(c1c(Cl)c(OCC)cc(OCC)c1Cl)C2 [Compound I-219]	–	–	501 to 999	101 to 500
C=CC(=O)N[C@H]1CCCC[C@H]1Nc1ncc2c(n1)N(C)C(=O)N(c1cc(OC)c(OC)c(OC)c1)C2 [Compound I-220]	–	–	> 1000	> 1000
C=CC(=O)Nc1ccccc1Nc1ncc2c(n1)N(Cc1cn[nH]c1)C(=O)N(c1cc(OC)cc(OC)c1)C2 [Compound I-121]	–	–	< 100	< 100
C=CC(=O)NC1COCC1Nc1ncc2c(n1)N(C)C(=O)N(c1c(Cl)c(OC)cc(OC)c1Cl)C2 (centres unmarked) [Compound I-126]	–	–	< 100	< 100
C=CC(=O)Nc1ccccc1Nc1ncc2c(n1)NC(=O)N(c1cc(OC)cc(OC)c1)C2 [Compound I-125]	–	–	> 1000	101 to 500
C=CC(=O)Nc1ccccc1Nc1ncc2c(n1)N(Cc1cscn1)C(=O)N(c1cc(OC)cc(OC)c1)C2 [Compound I-64]	–	–	101 to 500	< 100
C=CC(=O)Nc1ccccc1Nc1ncc2c(n1)N(C1COC1)C(=O)N(c1cc(OC)cc(OC)c1)C2 [Compound I-88]	–	–	101 to 500	< 100
C=CC(=O)NC1COCC1Nc1ncc2c(n1)N(C)C(=O)N(c1c(Cl)c(OCC)cc(OCC)c1Cl)C2 (centres unmarked) [Compound I-205]	–	–	101 to 500	101 to 500
C=CC(=O)N[C@H]1CCCC[C@H]1Nc1ncc2c(n1)N(C)C(=O)N(c1c(F)c(OC)cc(OC)c1Br)C2 [Compound I-228]	–	–	101 to 500	101 to 500
C=CC(=O)NC1COCC1Nc1ncc2c(n1)N(Cc1ccn(C)n1)C(=O)N(c1c(Cl)c(OC)cc(OC)c1Cl)C2 (centres unmarked) [Compound I-215]	–	–	< 100	< 100
C=CC(=O)NC1CCCCC1Nc1ncc2c(n1)N(CC(F)F)C(=O)N(c1c(F)c(OC)cc(OC)c1F)C2 (centres unmarked) [Compound I-115]	–	–	101 to 500	101 to 500
C=CC(=O)Nc1ccccc1Nc1ncc2c(n1)N(C1CCCNC1)C(=O)N(c1cc(OC)cc(OC)c1)C2 (centres unmarked) [Compound I-43]	–	–	> 1000	< 100
C=CC(=O)NC1COCC1Nc1ncc2c(n1)N(C)C(=O)N(c1ccc(OC)cc1)C2 (centres unmarked) [Compound I-209]	–	–	> 1000	> 1000
C=CC(=O)Nc1ccccc1Nc1ncc2c(n1)N(C)C(=O)N(c1c(Cl)cccc1Cl)C2 [Compound I-83]	–	–	101 to 500	101 to 500
C=CC(=O)Nc1cc(F)ccc1Nc1ncc2cc(-c3c(Cl)c(OC)cc(OC)c3Cl)c(=O)n(C)c2n1 [Compound I-245]	–	–	< 100	< 100
C=CC(=O)Nc1cc(C(F)(F)F)ccc1Nc1ncc2c(n1)N(Cc1ccccc1)C(=O)N(c1c(Cl)c(OC)cc(OC)c1Cl)C2 [Compound I-6]	–	501 to 999	101 to 500	–
C=CC(=O)Nc1ccccc1Nc1ncc2c(n1)N(CC#N)C(=O)N(c1cc(OC)cc(OC)c1)C2 [Compound I-48]	–	–	101 to 500	< 100
C=CC(=O)Nc1cc(-c2nnn(C)n2)ccc1Nc1ncc2c(n1)N(C)C(=O)N(c1cc(OC)cc(OC)c1)C2 [Compound I-146]	–	–	101 to 500	< 100
C=CC(=O)N[C@@H]1COC[C@@H]1Nc1ncc2c(n1)N(C)C(=O)N(c1c(Cl)c(OC)cc(OC)c1Cl)C2 [Compound I-185]	–	–	> 1000	> 1000
C=CC(=O)Nc1ccccc1Nc1ncc2c(n1)N(CC(F)F)C(=O)N(c1cc(OC)cc(OC)c1)C2 [Compound I-99]	–	–	101 to 500	< 100

Compound	EC50 [1] [nM]	IC50 (FGFR4-WT; [2]) [nM]	EC50 (pFGFR4 in Huh7 cells) [nM]	IC50 (FGFR4-WT; [3]) [nM]
C=CC(=O)Nc1ccccc1Nc1ncc2c(n1)N(C)C(=O)N(c1c(F)c(OC)cc(OC)c1F)C2 [Compound I-131]	–	–	< 100	< 100
C=CC(=O)Nc1cc(-c2nnnn2C)ccc1Nc1ncc2c(n1)N(C)C(=O)N(c1c(Cl)c(OC)cc(OC)c1Cl)C2 [Compound I-153]	–	–	< 100	< 100
C=CC(=O)NC1CCCCC1Nc1ncc2c(n1)N(Cc1ccccc1)C(=O)N(c1c(Cl)c(OC)cc(OC)c1Cl)C2 (racemic) [Compound I-63]	101 to 500	–	–	–
C=CC(=O)NC1CN(C2CCN(C)CC2)CC1Nc1ncc2c(n1)N(C)C(=O)N(c1c(Cl)c(OC)cc(OC)c1Cl)C2 (racemic) [Compound I-154]	–	–	> 1000	101 to 500
C=CC(=O)NC1CCCCC1Nc1ncc2c(n1)N(Cc1csc(C)n1)C(=O)N(c1c(Cl)c(OC)cc(OC)c1Cl)C2 (centres unmarked) [Compound I-137]	–	–	101 to 500	< 100
C=CC(=O)Nc1ccccc1Nc1ncc2c(n1)N(Cc1cn[nH]c1)C(=O)N(c1c(Cl)c(OC)cc(OC)c1Cl)C2 [Compound I-124]	–	–	< 100	< 100
C=CC(=O)Nc1ccccc1Nc1ncc2c(n1)N(C)C(=O)N(c1cc(OC)cc(OC)c1)C2 [Compound I-5]	–	–	101 to 500	< 100
C=CC(=O)Nc1cc(C(=O)NC2CCN(C)CC2)ccc1Nc1ncc2c(n1)N(C)C(=O)N(c1cc(OC)cc(OC)c1)C2 [Compound I-151]	–	–	> 1000	< 100
C=CC(=O)NC1CCCCC1Nc1ncc2c(n1)N(Cc1cccnc1)C(=O)N(c1c(Cl)c(OC)cc(OC)c1Cl)C2 (racemic) [Compound I-35]	101 to 500	–	–	–
C=CC(=O)Nc1cc(C)ccc1Nc1ncc2c(n1)N(C)C(=O)N(c1cc(OC)cc(OC)c1)C2 [Compound I-41]	–	–	101 to 500	< 100
C=CC(=O)N(C)C1COCC1Nc1ncc2c(n1)N(C)C(=O)N(c1c(Cl)c(OC)cc(OC)c1Cl)C2 (centres unmarked) [Compound I-218]	–	–	> 1000	> 1000
C=CC(=O)Nc1cc(C)ccc1Nc1ncc2cc(-c3c(Cl)c(OC)cc(OC)c3Cl)c(=O)n(C)c2n1 [Compound I-243]	–	–	< 100	< 100
C=CC(=O)Nc1cc(N(C)CCOC)ccc1Nc1ncc2c(n1)N(C)C(=O)N(c1cc(OC)cc(OC)c1)C2 [Compound I-21]	–	–	< 100	< 100
C=CC(=O)N[C@H]1COC[C@H]1Nc1ncc2c(n1)N(C)C(=O)N(c1c(Cl)c(OC)cc(OC)c1Cl)C2 [Compound I-186]	–	–	< 100	< 100
C=CC(=O)Nc1cc(N(C)CCOC)ccc1Nc1ncc2c(n1)N(Cc1ccccc1)C(=O)N(c1cc(OC)cc(OC)c1)C2 [Compound I-13]	–	101 to 500	101 to 500	–
C=CC(=O)NC1CN(c2ccncn2)CC1Nc1ncc2c(n1)N(C)C(=O)N(c1c(Cl)c(OC)cc(OC)c1Cl)C2 (centres unmarked) [Compound I-201]	–	–	101 to 500	< 100
C=CC(=O)Nc1ccccc1Nc1ncc2c(n1)N(C1CCCN(C(=O)OC(C)(C)C)C1)C(=O)N(c1cc(OC)cc(OC)c1)C2 (centres unmarked) [Compound I-36]	–	–	101 to 500	< 100
C=CC(=O)Nc1ccccc1Nc1ncc2c(n1)N(Cc1ccnc(N)c1)C(=O)N(c1cc(OC)cc(OC)c1)C2 [Compound I-87]	–	–	< 100	< 100
C=CC(=O)NC1COCC1Nc1ncc2c(n1)N(CC)C(=O)N(c1c(Cl)c(OC)cc(OC)c1Cl)C2 (centres unmarked) [Compound I-217]	–	–	< 100	< 100
C=CC(=O)NC1COCC1Nc1ncc2c(n1)N(C)C(=O)N(c1c(F)c(OC)cc(OC)c1Cl)C2 (centres unmarked) [Compound I-206]	–	–	< 100	< 100
C=CC(=O)NC1CN(c2ccn(C)n2)CC1Nc1ncc2c(n1)N(C)C(=O)N(c1c(Cl)c(OC)cc(OC)c1Cl)C2 (centres unmarked) [Compound I-204]	–	–	< 100	< 100
C=CC(=O)Nc1ccccc1Nc1ncc2c(n1)N(CC(F)F)C(=O)N(c1cc(OC)cc(OC)c1Cl)C2 [Compound I-104]	–	–	< 100	< 100
